Measurements as given in US20220089578A1, “COMPOUNDS AS GLP-1R AGONISTS” (Terns Pharmaceuticals, Inc., priority 2020, published 2022).

Target: human GLP-1R (Homo sapiens, UniProt P43220)
Experiment: GLP-1R Cell Assay 1: cAMP Hunter CHO-K1 GLP1R Gs cell line, HitHunter cAMP assay
Assay type: cell-based
Details: cAMP Hunter CHO-K1 GLP1R Gs cells, percent activity normalized to Exendin-4
Description: GLP-1R mediated agonist activity was determined using the cAMP Hunter CHO-K1 GLP1R Gs cell line (DiscoverX, cat# 95-0062C2), a stable CHO-K1 derived cell lines overexpressing naturally Gs coupled wild-type human GLP-1R (accession number: NM_002062.3). GLP-1R agonism in this cell line was detected by measuring cellular cAMP levels using the HitHunter cAMP assay kit (cat# 90-0075SM2), a homogenous, gain-of-signal competitive immune assay based on Enzyme Fragment Complementation (EFC) technology. In this system cellular cAMP competes with exogenous labeled cAMP (ED-cAMP) for binding to an anti-cAMP antibody. […] The luminescent signal is directly proportional to the amount of cellular cAMP.
For compound testing, cells were seeded in a total volume of 20 μL in white walled, 384-well microplates and incubated at 37° C. prior to compound testing. Prior to compound addition, cell culture media was removed by aspiration and replaced with 15 pt reagent buffer (2:1 HBSS/10 mM HEPES: cAMP XS+Ab reagent). Compounds were dissolved in DSMO and serially diluted (3-fold) prior to final dilution to 4X in assay buffer. Samples (5 μL) were added to cells and incubated at 37° C. for […] prior to 1 hour incubation with 20 pt cAMP XS+ED/CL lysis reagent and 3 hour incubation with 20 μL cAMP XS+EA reagent at room temperature. Microplates were read on a PerkinElmer Envision instrument. Compound activity was analyzed using CBIS data analysis suite (ChemInnovation). Percent activity was calculated based on duplicate assay runs and normalized to the positive control Exendin-4, a GLP-1R peptide agonist, using the following formula: […]
The effective compound concentration resulting in 50% response (EC50) was determined by non-linear regression analysis of dose-response curves.

human GLP-1R, sequence (P43220 24-463): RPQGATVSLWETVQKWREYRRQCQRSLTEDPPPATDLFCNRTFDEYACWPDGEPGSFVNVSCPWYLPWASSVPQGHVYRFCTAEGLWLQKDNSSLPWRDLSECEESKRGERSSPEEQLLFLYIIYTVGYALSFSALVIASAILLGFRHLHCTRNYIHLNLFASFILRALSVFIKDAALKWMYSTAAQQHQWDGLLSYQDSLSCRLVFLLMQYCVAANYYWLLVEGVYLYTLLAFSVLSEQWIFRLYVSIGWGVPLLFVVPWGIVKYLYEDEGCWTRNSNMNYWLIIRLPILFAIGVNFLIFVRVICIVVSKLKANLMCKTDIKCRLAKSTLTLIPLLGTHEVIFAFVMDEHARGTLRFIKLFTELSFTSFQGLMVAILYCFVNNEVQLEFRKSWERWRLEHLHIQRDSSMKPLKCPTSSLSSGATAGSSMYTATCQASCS

Row | Structure (SMILES) | EC50 (Table 2) [nM] | EC50 (Table 3) [nM]
1 | CS(=O)(=O)N1CCC(COc2cccc(N3CCN(Cc4nc5ccc(C(=O)O)cc5n4C[C@@H]4CCO4)CC3)n2)CC1 [Compound 52, (S)-2-((4-(6-((1-(methylsulfonyl)piperidin-4-yl)methoxy)pyridin-2-yl)piperazin-1-yl)methyl)-1-(oxetan-2-ylmethyl)-1H-benzo[d]imidazole-6-carboxylic acid] | > 500 | 
2 | N#Cc1ccc(COc2nn(C3CCN(Cc4nc5ccc(C(=O)O)cc5n4C[C@@H]4CCO4)CC3)cc2F)c(F)c1 [Compound 108, (S)-2-((4-(3-((4-cyano-2-fluorobenzyl)oxy)-4-fluoro-1H-pyrazol-1-yl)piperidin-1-yl)methyl)-1-(oxetan-2-ylmethyl)-1H-benzo[d]imidazole-6-carboxylic acid] | 4.15 | 
3 | O=C(O)c1ccc2nc3n(c2c1)CCOC[C@H]3N1CCC(c2cccc(OCc3ccccc3)n2)CC1 [Compound 93, (S)-5-(4-(6-(benzyloxy)pyridin-2-yl)piperidin-1-yl)-1,2,4,5-tetrahydrobenzo[4,5]imidazo [1,2-d][1,4]oxazepine-9-carboxylic acid] | > 500 | 
4 | N#Cc1cc(F)c2c(c1)CCC(c1cccc(N3CCN(Cc4nc5ccc(C(=O)O)cc5n4C[C@@H]4CCO4)CC3)n1)C2 (stereo partly drawn) [Compound 4, 2-((4-(6-(6-cyano-8-fluoro-1,2,3,4-tetrahydronaphthalen-2-yl)pyridin-2-yl)piperazin-1-yl)methyl)-1-((S)-oxetan-2-ylmethyl)-1H-benzo[d]imidazole-6-carboxylic acid] | 4.58 | 
5 | O=C(O)c1ccc2nc(CN3CC[C@]4(c5cccc(OCc6ccc(Cl)cc6F)n5)C[C@@H]4C3)n(C[C@@H]3CCO3)c2c1 [Compound 98, 2-(((1S,6R)-6-(6-((4-chloro-2-fluorobenzyl)oxy)pyridin-2-yl)-3-azabicyclo[4.1.0]heptan-3-yl)methyl)-1-(((S)-oxetan-2-yl)methyl)-1H-benzo[d]imidazole-6-carboxylic acid] | 0.556 | 
6 | N#Cc1cnc(COc2cccc(N3CCN(Cc4nc5ccc(C(=O)O)cc5n4C[C@@H]4CCO4)CC3)n2)nc1 [Compound 16, (S)-2-((4-(6-((5-cyanopyrimidin-2-yl)methoxy)pyridin-2-yl)piperazin-1-yl)methyl)-1-(oxetan-2-ylmethyl)-1H-benzo[d]imidazole-6-carboxylic acid] | 9.24 | 
7 | N#CC1(COc2cccc(N3CCN(Cc4nc5ccc(C(=O)O)cc5n4C[C@@H]4CCO4)CC3)n2)COC1 [Compound 61, (S)-2-((4-(6-((3-cyanooxetan-3-yl)methoxy)pyridin-2-yl)piperazin-1-yl)methyl)-1-(oxetan-2-ylmethyl)-1H-benzo[d]imidazole-6-carboxylic acid] | > 500 | 
8 | Cn1cnc2cc(COc3cccc(N4CCN(Cc5nc6ccc(C(=O)O)cc6n5C[C@@H]5CCO5)CC4)n3)ccc21 [Compound 3, (S)-2-((4-(6-((1-methyl-1H-benzo[d]imidazol-5-yl)methoxy)pyridin-2-yl)piperazin-1-yl)methyl)-1-(oxetan-2-ylmethyl)-1H-benzo[d]imidazole-6-carboxylic acid] | 9.05 | 
9 | N#Cc1cccc2c1CCN(c1cccc(N3CCN(Cc4nc5ccc(C(=O)O)cc5n4C[C@@H]4CCO4)CC3)n1)C2 [Compound 120, (S)-2-((4-(6-(5-cyano-3,4-dihydroisoquinolin-2(1H)-yl)pyridin-2-yl)piperazin-1-yl)methyl)-1-(oxetan-2-ylmethyl)-1H-benzo[d]imidazole-6-carboxylic acid] | 43.5 | 
10 | N#Cc1ccc(-n2ccc3c(C4CCN(Cc5nc6ccc(C(=O)O)cc6n5C[C@@H]5CCO5)CC4)cccc3c2=O)c(F)c1 [Compound 147, (S)-2-((4-(2-(4-cyano-2-fluorophenyl)-1-oxo-1,2-dihydroisoquinolin-5-yl)piperidin-1-yl)methyl)-1-(oxetan-2-ylmethyl)-1H-benzo[d]imidazole-6-carboxylic acid] |  | > 500
11 | CCn1cncc1Cn1c(CN2CCC(c3cccc(OCc4nc5ccc(C#N)cc5s4)n3)CC2)nc2ccc(C(=O)O)cc21 [Compound 165, 2-((4-(6-((6-cyanobenzo[d]thiazol-2-yl)methoxy)pyridin-2-yl)piperidni-1-yl)methyl)-1-((1-ethyl-1H-imidazol-5-yl)methyl)-1H-benzo[d]imidazole-6-carboxylic acid] |  | 0.0254
12 | O=C(O)c1ccc2nc(CN3CCN(c4cccc(OCC5CCS(=O)(=O)CC5)n4)CC3)n(C[C@@H]3CCO3)c2c1 [Compound 54, (S)-2-((4-(6-((1,1-dioxidotetrahydro-2H-thiopyran-4-yl)methoxy)pyridin-2-yl)piperazin-1-yl)methyl)-1-(oxetan-2-ylmethyl)-1H-benzo[d]imidazole-6-carboxylic acid] | > 500 | 
13 | CCn1cncc1Cn1c(CN2CC[C@]3(c4cccc(N5CCc6cc(C#N)cc(F)c6C5)n4)C[C@@H]3C2)nc2ccc(C(=O)O)cc21 [Compound 184-P2, 2-(((1S,6R)-6-(6-(6-cyano-8-fluoro-3,4-dihydroisoquinolin-2(1H)-yl)pyridin-2-yl)-3-azabicyclo[3.1.0]heptan-3-yl)methyl)-1-((1-ethyl-1H-imidazol-5-yl)methyl)-1H-benzo[d]imidazole-6-carboxylic acid] |  | 0.414
14 | O=C(O)c1ccc2nc3n(c2c1)CCOC[C@@H]3N1CCC(c2cccc(OCc3ccccc3)n2)CC1 [Compound 94, (R)-5-(4-(6-(benzyloxy)pyridin-2-yl)piperidin-1-yl)-1,2,4,5-tetrahydrobenzo[4,5]imidazo[1,2-d][1,4]oxazepine-9-carboxylic acid] | 152 | 
15 | O=C(O)c1ccc2nc(CN3CCC4(c5cccc(OCc6ccccc6)n5)CC4C3)n(CC3CCO3)c2c1 (centres unmarked) [Compound 10] | 13.9 | 
16 | O=C(O)c1ccc2nc(CN3CCN(c4cccc(OCc5cc6ccccc6s5)n4)CC3)n(C[C@@H]3CCO3)c2c1 [Compound 65, (S)-2-((4-(6-(benzo[b]thiophen-2-ylmethoxy)pyridin-2-yl)piperazin-1-yl)methyl)-1-(oxetan-2-ylmethyl)-1H-benzo[d]imidazole-6-carboxylic acid] | 0.998 | 
17 | N#Cc1ccc2c(c1)CN(c1cccc(N3CCN(Cc4nc5ccc(C(=O)O)cc5n4C[C@@H]4CCO4)CC3)n1)C2 [Compound 57, (S)-2-((4-(6-(5-cyanoisoindolin-2-yl)pyridin-2-yl)piperazin-1-yl)methyl)-1-(oxetan-2-ylmethyl)-1H-benzo[d]imidazole-6-carboxylic acid] | > 500 | 
18 | CS(=O)(=O)N1CC(COc2cccc(N3CCN(Cc4nc5ccc(C(=O)O)cc5n4C[C@@H]4CCO4)CC3)n2)C1 [Compound 56, (S)-2-((4-(6-((1-(methylsulfonyl)azetidin-3-yl)methoxy)pyridin-2-yl)piperazin-1-yl)methyl)-1-(oxetan-2-ylmethyl)-1H-benzo[d]imidazole-6-carboxylic acid] | > 500 | 
19 | O=C(O)c1ccc2nc(CN3CC[C@]4(c5cccc(OCc6nc7ccccc7s6)n5)C[C@@H]4C3)n(C[C@@H]3CCO3)c2c1 (single isomer, unassigned) [Compound 104-P2] | 8.12 | 
20 | N#Cc1ccc(COc2nn(C3CCN(Cc4nc5ccc(C(=O)O)cc5n4C[C@@H]4CCO4)CC3)cc2C(F)(F)F)c(F)c1 [Compound 117, (S)-2-((4-(3-((4-cyano-2-fluorobenzyl)oxy)-4-(trifluoromethyl)-1H-pyrazol-1-yl)piperidin-1-yl)methyl)-1-(oxetan-2-ylmethyl)-1H-benzo[d]imidazole-6-carboxylic acid] | 5.93 | 
